Structures can show the parent of a compound that is named as a salt. Calls of active or inactive are those of the source.
Legend:
[1] = T. cruzi intracellular amastigote growth inhibition, dose response, imaging, CA-I/72 strain, bovine embryo skeletal muscle, dry powder (AID 651885); type: functional, cell-based
[2] = L. donovani amastigote growth inhibition, dose response, axenic amastigotes, plate reader, dry powder (AID 651892); type: functional, cell-based
[3] = T. cruzi growth inhibition in host cells, dose response, cell-based, plate reader, dry powder, set 2 (AID 652275); type: functional
[4] = T. b. rhodesiense proliferation inhibition, dose response, STIB900 strain, plate reader, dry powder (AID 651894); type: functional, cell-based
[5] = growth inhibition of intracellular T. cruzi, dose response, cell-based, plate reader, dry powder samples (AID 651845); type: functional
[6] = P. falciparum blood-stage growth inhibition, dose response, NF54 strain, plate reader, dry powder (AID 651889); type: functional, cell-based
[7] = L-6 rat myoblast cytotoxicity, dose response, counter-screen for T. cruzi inhibitor project, cell-based, plate reader, dry powder (AID 651895); type: functional
[8] = T. cruzi amastigote growth inhibition, dose response, Tulahuen strain, L-6 host cells, dry powder (AID 651890); type: functional, cell-based
[9] = IOSE-T80 ovarian epithelial cell cytotoxicity, dose response, cytotoxicity control for PAX8 inhibitor project, plate reader, dry powder samples (AID 743045); type: functional, cell-based
[10] = NIH:OVCAR-3 ovarian cancer cell cytotoxicity, dose response, PAX8 inhibitor project, plate reader, dry powder samples (AID 743044); type: functional, cell-based
[11] = A2780 ovarian cancer cell cytotoxicity, dose response, cytotoxicity control, plate reader, dry powder samples (AID 743046); type: functional, cell-based
Paired box protein Pax-8 = Paired box protein Pax-8 (Homo sapiens, UniProt Q06710); assay: inhibitors of PAX8-driven TPO luciferase reporter, dose response, RMG-I cells, cherry-pick (AID 687027); type: functional, cell-based;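 further: luciferase reporter driven by Pax8 target thyroperoxidase promoter measured by SteadyGlo luminescence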
Chain of Paired box protein Pax-8 (Q06710 whole entry): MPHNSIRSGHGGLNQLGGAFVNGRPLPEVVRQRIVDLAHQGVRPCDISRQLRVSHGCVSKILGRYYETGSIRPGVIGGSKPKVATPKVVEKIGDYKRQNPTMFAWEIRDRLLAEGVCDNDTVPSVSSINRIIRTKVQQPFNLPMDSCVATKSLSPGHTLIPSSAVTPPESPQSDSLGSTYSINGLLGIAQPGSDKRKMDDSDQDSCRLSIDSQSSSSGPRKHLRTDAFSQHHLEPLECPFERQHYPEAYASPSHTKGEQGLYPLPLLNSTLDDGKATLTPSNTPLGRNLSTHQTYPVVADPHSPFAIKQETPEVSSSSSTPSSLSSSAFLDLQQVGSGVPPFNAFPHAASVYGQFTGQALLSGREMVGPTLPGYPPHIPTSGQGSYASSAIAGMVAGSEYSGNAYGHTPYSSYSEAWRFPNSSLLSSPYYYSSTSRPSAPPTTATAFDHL

[12] = IGROV1 ovarian cancer cell cytotoxicity, dose response, PAX8 inhibitor project, plate reader, dry powder samples (AID 743043); type: functional, cell-based; conditions: IGROV-1
[13] = Late stage assay provider results from the probe development effort to identify inhibitors of the Plasmodium falciparum M18 Aspartyl Aminopeptidase (M18AAP): radiolabel-based cell-based dose response assay to identify compounds that inhibit P. falciparum growth in RBCs, Set 2..; type: functional
[14] = Dose-response inhibition of insulin secretion in a rat insulinoma line at 5 mM glucose (AID 1117331); type: functional, cell-based; conditions: INS-1E
cells = type: functional, cell-based; conditions: INS-1E
[15] = target: T1, Methionyl-tRNA synthetase, putative (Trypanosoma brucei brucei, UniProt Q38C91); type: functional, Trypanosoma brucei brucei strain 927/4 GUTat10.1
T1 sequence (Q38C91 whole entry): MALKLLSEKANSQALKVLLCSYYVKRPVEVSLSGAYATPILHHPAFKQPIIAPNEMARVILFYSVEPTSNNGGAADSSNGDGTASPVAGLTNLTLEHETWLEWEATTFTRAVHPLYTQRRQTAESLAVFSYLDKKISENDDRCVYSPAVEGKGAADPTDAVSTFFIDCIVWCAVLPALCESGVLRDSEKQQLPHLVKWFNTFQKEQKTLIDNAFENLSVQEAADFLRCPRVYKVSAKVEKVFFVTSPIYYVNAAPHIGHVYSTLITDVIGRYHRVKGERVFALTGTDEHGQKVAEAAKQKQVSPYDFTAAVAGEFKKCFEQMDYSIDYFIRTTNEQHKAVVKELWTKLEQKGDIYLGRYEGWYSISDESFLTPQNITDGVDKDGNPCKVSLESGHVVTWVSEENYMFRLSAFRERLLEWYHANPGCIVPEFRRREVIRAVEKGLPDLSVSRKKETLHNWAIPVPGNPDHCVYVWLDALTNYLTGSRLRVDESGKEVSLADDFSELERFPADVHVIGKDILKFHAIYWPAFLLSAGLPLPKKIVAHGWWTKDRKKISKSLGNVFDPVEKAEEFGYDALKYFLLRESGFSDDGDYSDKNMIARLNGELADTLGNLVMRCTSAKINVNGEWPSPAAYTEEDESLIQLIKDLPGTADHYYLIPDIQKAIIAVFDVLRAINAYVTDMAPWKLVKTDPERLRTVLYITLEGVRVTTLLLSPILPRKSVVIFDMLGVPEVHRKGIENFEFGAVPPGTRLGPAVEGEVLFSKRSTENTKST

[16] = Late stage counterscreen for inhibitors of Trypanosoma brucei methionyl tRNA synthetase (MetRS): Luminescence-based cell-based high throughput dose response assay to identify compounds that are cytotoxic to Jurkat human T lymphocyte cells.; type: functional
[17] = Counterscreen for inhibitors of Trypanosoma brucei methionyl tRNA synthetase (MetRS): Luminescence-based cell-based high throughput dose response assay to identify compounds that are cytotoxic to Jurkat human T lymphocyte cells.; type: functional
[18] = target: T1, Methionyl-tRNA synthetase, putative; type: functional, Trypanosoma brucei brucei strain 927/4 GUTat10.1; remark: listed apart in the source
[19] = target: T2, Oxysterols receptor LXR-beta (Homo sapiens, UniProt P55055); assay: LXR agonists, Gal4 luciferase reporter, dose response, counter-screen for ssDAF-12 agonist project, cell-based, luminescence, HEK293, S. stercoralis campaign (AID 720737); type: functional; conditions: read-out: IC50 (the source's name)
T2 sequence (P55055 whole entry): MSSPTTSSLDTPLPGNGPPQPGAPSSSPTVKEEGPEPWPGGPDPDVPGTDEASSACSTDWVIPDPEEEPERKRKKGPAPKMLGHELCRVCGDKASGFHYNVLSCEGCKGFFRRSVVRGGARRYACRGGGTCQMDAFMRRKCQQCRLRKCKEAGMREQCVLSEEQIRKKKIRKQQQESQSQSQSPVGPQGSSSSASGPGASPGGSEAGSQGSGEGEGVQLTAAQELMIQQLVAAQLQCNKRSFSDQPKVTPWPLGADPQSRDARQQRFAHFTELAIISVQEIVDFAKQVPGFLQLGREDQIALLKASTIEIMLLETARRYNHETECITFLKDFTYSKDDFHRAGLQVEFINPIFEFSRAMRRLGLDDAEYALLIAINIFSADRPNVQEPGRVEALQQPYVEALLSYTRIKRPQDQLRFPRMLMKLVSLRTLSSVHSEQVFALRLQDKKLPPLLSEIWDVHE

[20] = target: T2, Oxysterols receptor LXR-beta; type: functional, cell-based
[21] = target: G-protein coupled receptor 55 (Homo sapiens, UniProt Q9Y2T6); assay: GPR55 agonists via beta-arrestin recruitment, primary screen, imaging, U2OS cells, beta-arrestin-GFP redistribution (AID 1961); type: functional
Chain of G-protein coupled receptor 55 (Q9Y2T6 whole entry): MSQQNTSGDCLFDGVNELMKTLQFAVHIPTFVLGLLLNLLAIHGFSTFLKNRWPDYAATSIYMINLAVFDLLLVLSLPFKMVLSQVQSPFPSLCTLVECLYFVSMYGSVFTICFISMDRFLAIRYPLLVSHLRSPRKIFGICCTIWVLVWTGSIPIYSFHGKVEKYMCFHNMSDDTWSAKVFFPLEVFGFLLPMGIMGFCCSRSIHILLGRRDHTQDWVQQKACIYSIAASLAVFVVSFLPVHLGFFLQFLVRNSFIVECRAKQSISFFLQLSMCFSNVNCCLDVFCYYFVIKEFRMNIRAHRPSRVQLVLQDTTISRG

Protein skinhead-1 = target: T3, Protein skinhead-1 (Caenorhabditis elegans, UniProt P34707); type: functional
T3 sequence (P34707 whole entry): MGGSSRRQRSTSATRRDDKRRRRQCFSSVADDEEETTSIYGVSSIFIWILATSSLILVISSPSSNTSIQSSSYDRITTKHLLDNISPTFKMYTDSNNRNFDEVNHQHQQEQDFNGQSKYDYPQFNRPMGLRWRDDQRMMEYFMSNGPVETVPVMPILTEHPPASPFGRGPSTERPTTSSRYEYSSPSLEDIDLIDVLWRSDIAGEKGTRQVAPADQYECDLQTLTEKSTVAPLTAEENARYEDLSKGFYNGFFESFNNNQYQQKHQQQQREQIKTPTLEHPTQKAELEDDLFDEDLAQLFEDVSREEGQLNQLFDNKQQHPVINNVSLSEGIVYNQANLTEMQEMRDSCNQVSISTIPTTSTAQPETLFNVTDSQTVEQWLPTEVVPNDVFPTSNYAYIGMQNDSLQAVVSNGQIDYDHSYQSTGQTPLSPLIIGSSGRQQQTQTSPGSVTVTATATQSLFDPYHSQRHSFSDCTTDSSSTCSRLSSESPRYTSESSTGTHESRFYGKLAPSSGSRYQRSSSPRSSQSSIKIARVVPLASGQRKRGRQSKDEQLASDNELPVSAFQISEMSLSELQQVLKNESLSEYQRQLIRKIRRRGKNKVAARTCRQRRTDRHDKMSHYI

[22] = Luminescence-based cell-based high throughput dose response assay to identify activators of the DAF-12 from the parasite S. stercoralis (ssDAF-12).; type: functional

C[C@@H]1CN([C@@H](C)CO)C(=O)c2cccc(NC(=O)c3ccncc3)c2O[C@@H]1CN(C)Cc1ccc(Oc2ccccc2)cc1
IC50 [1]: 0.55 µM (active) | IC50 [2]: > 100 µM (inactive) | AC50 [3]: 0.276 µM (active) | IC50 [4]: 1.02 µM (inactive) | AC50 [5]: 0.506 µM (active) | IC50 [6]: 0.873 µM (inactive) | IC50 [7]: 47.6 µM (inactive) | IC50 [8]: 0.666 µM (active)

C[C@@H]1CN([C@H](C)CO)C(=O)c2cc(NC(=O)Nc3ccc(C(F)(F)F)cc3)ccc2O[C@@H](C)CCCCO[C@@H]1CN(C)Cc1ccncc1
AC50 [9]: 56.4 µM (active) | AC50 [10]: 14.8 µM (active) | AC50 [11]: 56.9 µM (active) | AC50 (Paired box protein Pax-8): 4.21 µM (active) | AC50 [12]: 41.8 µM (active)

COc1ccc(CCNC2CCN(Cc3ccccc3)CC2)cc1OC
IC50 [13]: 6.9 µM (active)

CN(C)CCC[C@@]1(c2ccc(F)cc2)OCc2cc(C#N)ccc21 [ESCITALOPRAM OXALATE]
IC50 [14]: 5.45 µM (inactive) | IC50 (cells): > 33.3 µM (inactive)

O=C(Nc1ccc(F)c(Cl)c1)C1CC(=O)n2c(nc3ccccc32)N1 (stereo not given)
IC50 [15]: 2.34 µM (active) | IC50 [16]: > 83.3 µM (inactive) | IC50 [17]: 83.3 µM (inactive) | IC50 [18]: 1.47 µM (active)

N=C(NOC(=O)c1cc(Br)ccc1Cl)c1ccccn1
EC50 [19]: > 67.5 µM (inactive) | EC50 [20]: > 67.5 µM (inactive) | EC50 [21]: 31.4 µM (inactive) | IC50 (Protein skinhead-1): 41.8 µM (active) | IC50 [22]: > 67.5 µM (inactive)

Reference: ChEMBL document CHEMBL1201862, “PubChem BioAssay data set” (2004)
